Calls of active or inactive are those of the source. How the calls were made is not given here.
Target: Ubiquitin carboxyl-terminal hydrolase 10 (Homo sapiens) (UniProt Q14694)
Test: primary hit verification, biochemical, ubiquitin-specific protease 10 deubiquitylase inhibitors, concentration-effect titration (AID 1645863);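 further: potency values describe inhibition of USP10 cleavage of a fluorogenic ubiquitin substrate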
Settings: USP10 deubiquitinase enzymatic assay

Ubiquitin carboxyl-terminal hydrolase 10 (Homo sapiens), sequence (Q14694 whole entry, looked up): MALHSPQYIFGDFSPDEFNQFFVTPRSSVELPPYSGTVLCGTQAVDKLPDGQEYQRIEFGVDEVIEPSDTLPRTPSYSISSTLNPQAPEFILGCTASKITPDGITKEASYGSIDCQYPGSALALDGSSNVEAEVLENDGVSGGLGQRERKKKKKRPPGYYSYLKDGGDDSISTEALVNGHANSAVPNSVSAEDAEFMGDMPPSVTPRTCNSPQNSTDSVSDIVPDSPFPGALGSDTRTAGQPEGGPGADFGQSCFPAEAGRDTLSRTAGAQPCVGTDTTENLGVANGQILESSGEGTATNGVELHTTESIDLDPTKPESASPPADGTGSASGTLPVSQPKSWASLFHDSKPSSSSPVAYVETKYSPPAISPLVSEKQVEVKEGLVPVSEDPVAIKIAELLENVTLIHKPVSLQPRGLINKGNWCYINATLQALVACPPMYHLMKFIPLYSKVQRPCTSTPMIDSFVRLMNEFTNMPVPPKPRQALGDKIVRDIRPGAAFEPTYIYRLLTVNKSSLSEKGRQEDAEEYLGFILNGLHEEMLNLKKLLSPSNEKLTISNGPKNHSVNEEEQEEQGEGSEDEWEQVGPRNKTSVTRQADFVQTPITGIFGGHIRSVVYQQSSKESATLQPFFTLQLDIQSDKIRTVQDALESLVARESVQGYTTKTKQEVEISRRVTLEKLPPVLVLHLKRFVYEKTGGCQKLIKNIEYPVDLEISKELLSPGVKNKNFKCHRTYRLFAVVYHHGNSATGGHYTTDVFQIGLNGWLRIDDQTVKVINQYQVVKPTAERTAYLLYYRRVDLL

| SMILES | IC50 |
| --- | --- |
| Cc1ccc(Nc2nc3c(S(=O)(=O)c4ccccc4)nnn3c3ccccc23)c(C)c1 | > 40 µM (inactive) |
| Cc1ccc2cc(CNc3ccccc3)c(=O)n(CC(=O)Nc3ccccc3C)c2c1 | > 40 µM (inactive) |
| CC(=O)Nc1ccc(S(=O)(=O)NCc2ccc(C(=O)NCCc3ccc(Cl)cc3)cc2)cc1 | > 40 µM (inactive) |
| CC(C)=CCc1c(O)cc2c(c1C)OC(=O)c1c(C)c(Cl)c(O)c(CO)c1O2 | 15.9 µM |
| O=C(Nc1ccc(F)cc1F)c1cc(-c2ccccn2)n[nH]1 | > 40 µM (inactive) |
| COc1ccccc1-c1nc(-c2cn(-c3ccc(F)cc3)nn2)no1 | 15.6 µM |
| Cc1cc(C)c(O)c(-c2cc(C(=O)Nc3ccccc3Cl)[nH]n2)c1 | > 40 µM (inactive) |
| CCc1noc(-c2ccn3c(CC(=O)Nc4ccccc4C)nnc3c2)n1 | 8 µM |
| O=C(Cn1c(=O)n(-c2ccc(CC(=O)NC3CCCC3)cc2)c(=O)c2ccccc21)Nc1ccccc1[N+](=O)[O-] | 19.9 µM |
| COc1cc2c(=O)n(CC3CCCO3)c(=O)n(CC(=O)c3ccc4c(c3)OCO4)c2cc1OC (configuration not stated) | 37.4 µM |
| O=c1c2[nH]c3ccccc3c2ncn1CCC1=CCCCC1 | > 40 µM (inactive) |
| O=C(Nc1ccc(F)cc1)Nc1ccccc1OCc1cc(=O)n2ccccc2n1 | 26.3 µM |
| O=C(c1ccc2occc2c1)N1CCC(S(=O)(=O)c2ccc(-c3ccco3)cc2)CC1 | > 40 µM (inactive) |
| O=c1[nH]c(C2CCN(S(=O)(=O)c3ccc(S(=O)(=O)N4CCOCC4)cc3)CC2)nc2c1nnn2Cc1ccc(F)cc1 | > 40 µM (inactive) |
| COC(=O)c1cc2c(ccn2-c2ccc(F)cc2)n1CC(=O)NC1CCCCC1 | > 40 µM (inactive) |
| Cc1nc(-c2ccccc2)sc1-c1nc(-c2ccccc2)ncc1S(=O)(=O)c1ccccc1 | > 40 µM (inactive) |
| CC(NC(=O)c1ccccc1)c1nc2ccccc2n1CC(=O)Nc1ccc2c(c1)OCO2 (configuration not stated) | 11.5 µM |

Source: PubChem BioAssay AID1645863 (Buhrlage Lab, Dana-Farber Cancer Institute and Novartis …, 2021)
